Results as given in PubChem BioAssay (NCI).
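Values below derive from 48-hour exposures of cells grown in 96-well plates, with endpoints linearly interpolated between the two concentrations bracketing the appropriate inhibition level. GI50 = concentration required for 50% inhibition of growth. TGI denotes the concentration required for complete inhibition of growth.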

Key:
Test in all cases: NCI-60 cell line screen, 48 h
SK-MEL-5 melanoma = tested on: SK-MEL-5 melanoma
SNB-75 CNS = tested on: SNB-75 CNS
NCI-H522 lung = tested on: NCI-H522 lung
NCI/ADR-RES ovarian = tested on: NCI/ADR-RES ovarian
SK-MEL-2 melanoma = tested on: SK-MEL-2 melanoma
MOLT-4 leukemia = tested on: MOLT-4 leukemia
HCT-15 colon = tested on: HCT-15 colon
HCC-2998 colon = tested on: HCC-2998 colon
HOP-92 NSCLC = tested on: HOP-92 NSCLC
SF-295 CNS = tested on: SF-295 CNS
HCT-116 colon = tested on: HCT-116 colon
LOX IMVI melanoma = tested on: LOX IMVI melanoma
ACHN renal = tested on: ACHN renal
SN12C renal = tested on: SN12C renal
HL-60(TB) leukemia = tested on: HL-60(TB) leukemia
OVCAR-8 ovarian = tested on: OVCAR-8 ovarian
DU-145 prostate = tested on: DU-145 prostate
SF-268 CNS = tested on: SF-268 CNS
SR leukemia = tested on: SR leukemia
MDA-MB-468 breast = tested on: MDA-MB-468 breast
K-562 leukemia = tested on: K-562 leukemia
OVCAR-3 ovarian = tested on: OVCAR-3 ovarian
IGROV1 ovarian = tested on: IGROV1 ovarian
SNB-19 CNS = tested on: SNB-19 CNS
RXF 393 renal = tested on: RXF 393 renal
A498 renal = tested on: A498 renal
NCI-H226 lung = tested on: NCI-H226 lung
UACC-62 melanoma = tested on: UACC-62 melanoma
BT-549 breast = tested on: BT-549 breast
MDA-MB-231 breast = tested on: MDA-MB-231 breast

Question: `O=C(CSc1nnc(-c2ccc(-c3nc4ccccc4[nH]3)cc2)o1)Nc1ccc(Br)cc1` was tested. Which TGI (SK-MEL-5 melanoma) did it give?
Answer: Its TGI is 17.3 µM.

Question: What about the GI50 (SNB-75 CNS) of the same compound?
Answer: The GI50 was 2 µM.

Question: And the TGI (SNB-75 CNS)?
Answer: Its TGI is 7.51 µM.

Question: And the GI50 (NCI-H522 lung)?
Answer: Its GI50 is 2.74 µM.

Question: And the TGI (NCI-H522 lung)?
Answer: Its TGI is 14.6 µM.

Question: What about the GI50 (NCI/ADR-RES ovarian) of the same compound?
Answer: Its GI50 is 5.14 µM.

Question: And the TGI (NCI/ADR-RES ovarian)?
Answer: Its TGI is 19.1 µM.

Question: What about the GI50 (SK-MEL-2 melanoma) of the same compound?
Answer: The GI50 was 12.2 µM.

Question: And the TGI (SK-MEL-2 melanoma)?
Answer: The TGI was 26.4 µM.

Question: And the GI50 (MOLT-4 leukemia)?
Answer: The GI50 was 3.26 µM.

Question: And the TGI (MOLT-4 leukemia)?
Answer: The TGI was 18 µM.

Question: And the GI50 (HCT-15 colon)?
Answer: The GI50 was 3.66 µM.

Question: And the TGI (HCT-15 colon)?
Answer: Its TGI is 15.1 µM.

Question: And the GI50 (HCC-2998 colon)?
Answer: The GI50 was 12.9 µM.

Question: And the TGI (HCC-2998 colon)?
Answer: Its TGI is 31.2 µM.

Question: And the GI50 (HOP-92 NSCLC)?
Answer: The GI50 was 3.24 µM.

Question: What about the TGI (HOP-92 NSCLC) of the same compound?
Answer: The TGI was 11.5 µM.

Question: And the GI50 (SF-295 CNS)?
Answer: Its GI50 is 2.31 µM.

Question: And the TGI (SF-295 CNS)?
Answer: Its TGI is 5.97 µM.

Question: What about the GI50 (HCT-116 colon) of the same compound?
Answer: Its GI50 is 3.43 µM.

Question: And the TGI (HCT-116 colon)?
Answer: The TGI was 13.7 µM.

Question: And the GI50 (LOX IMVI melanoma)?
Answer: Its GI50 is 1.73 µM.

Question: What about the TGI (LOX IMVI melanoma) of the same compound?
Answer: The TGI was 3.48 µM.

Question: And the GI50 (ACHN renal)?
Answer: Its GI50 is 3.55 µM.

Question: What about the TGI (ACHN renal) of the same compound?
Answer: Its TGI is 12.8 µM.

Question: What about the GI50 (SN12C renal) of the same compound?
Answer: Its GI50 is 3.4 µM.

Question: And the TGI (SN12C renal)?
Answer: Its TGI is 12.7 µM.

Question: What about the GI50 (HL-60(TB) leukemia) of the same compound?
Answer: Its GI50 is 6.37 µM.

Question: And the TGI (HL-60(TB) leukemia)?
Answer: Its TGI is 33.1 µM.

Question: What about the GI50 (OVCAR-8 ovarian) of the same compound?
Answer: The GI50 was 4.11 µM.

Question: What about the TGI (OVCAR-8 ovarian) of the same compound?
Answer: Its TGI is 15.6 µM.

Question: What about the GI50 (DU-145 prostate) of the same compound?
Answer: The GI50 was 3.2 µM.

Question: And the TGI (DU-145 prostate)?
Answer: The TGI was 10.8 µM.

Question: And the GI50 (SF-268 CNS)?
Answer: The GI50 was 2.44 µM.

Question: And the TGI (SF-268 CNS)?
Answer: The TGI was 6.61 µM.

Question: What about the GI50 (SR leukemia) of the same compound?
Answer: Its GI50 is 4.57 µM.

Question: And the TGI (SR leukemia)?
Answer: The TGI was 40.1 µM.

Question: And the GI50 (MDA-MB-468 breast)?
Answer: The GI50 was 6.47 µM.

Question: What about the TGI (MDA-MB-468 breast) of the same compound?
Answer: Its TGI is 20.7 µM.

Question: And the GI50 (K-562 leukemia)?
Answer: Its GI50 is 3.01 µM.

Question: What about the TGI (K-562 leukemia) of the same compound?
Answer: Its TGI is greater than 100 µM.

Question: What about the GI50 (OVCAR-3 ovarian) of the same compound?
Answer: The GI50 was 2.74 µM.

Question: And the TGI (OVCAR-3 ovarian)?
Answer: The TGI was 8.95 µM.

Question: What about the GI50 (IGROV1 ovarian) of the same compound?
Answer: The GI50 was 10.3 µM.

Question: What about the TGI (IGROV1 ovarian) of the same compound?
Answer: Its TGI is 22.6 µM.

Question: And the GI50 (SNB-19 CNS)?
Answer: Its GI50 is 5.36 µM.

Question: And the TGI (SNB-19 CNS)?
Answer: Its TGI is 18 µM.

Question: What about the GI50 (RXF 393 renal) of the same compound?
Answer: Its GI50 is 2.26 µM.

Question: What about the TGI (RXF 393 renal) of the same compound?
Answer: The TGI was 5.82 µM.

Question: What about the GI50 (A498 renal) of the same compound?
Answer: The GI50 was 19 µM.

Question: And the TGI (A498 renal)?
Answer: Its TGI is 35.3 µM.

Question: And the GI50 (NCI-H226 lung)?
Answer: The GI50 was 2.63 µM.

Question: And the TGI (NCI-H226 lung)?
Answer: Its TGI is 9.59 µM.

Question: What about the GI50 (UACC-62 melanoma) of the same compound?
Answer: Its GI50 is 4.13 µM.

Question: And the TGI (UACC-62 melanoma)?
Answer: The TGI was 15.5 µM.

Question: And the GI50 (BT-549 breast)?
Answer: Its GI50 is 3.03 µM.

Question: What about the TGI (BT-549 breast) of the same compound?
Answer: Its TGI is 7.93 µM.

Question: What about the GI50 (MDA-MB-231 breast) of the same compound?
Answer: Its GI50 is 4.38 µM.

Question: And the TGI (MDA-MB-231 breast)?
Answer: Its TGI is 15.1 µM.
